This note sets out measurements from ChEMBL document CHEMBL4184333, “Expanding Benzoxazole-Based Inosine 5'-Monophosphate Dehydrogenase (IMPDH) Inhibitor Structure-Activity As Potential Antituberculosis Agents” (J Med Chem, 2018).

Values after ≈ are worked out from the molar mass of the structure shown. Active and inactive are the calls of the source. The calls are words filed in the database; no cut-off is given here.

The target in data set [1] is Inosine-5'-monophosphate dehydrogenase 2 (Homo sapiens, UniProt P12268). The data set is described as follows: Inhibition of human IMPDH2 using IMP as substrate by spectrophotometric method. The note with it: read-out: Ki(app).
Data set [2] deals with HepG2. The data set is described as follows: (§1) Cytotoxicity against human HepG2 cells after 24 hrs by LDH release assay. The data set is classed as cell-based. The note with it: hepg2, 24 h. (In general: LDH in the medium is a marker of cell lysis.)
The test system of data set [3] is Mycobacterium tuberculosis. The experiment in a line: Antitubercular activity against Mycobacterium tuberculosis H37Rv ATCC 27294 using 7H9/ADC/Tween medium after 1 week in absence of guanine by broth microdilution method. The data set is classed as functional. As to conditions: H37Rv ATCC 27294, 168 h. A general note: Broth dilution looks for growth in wells or tubes with falling amounts of substance.

For data set [4], the system named is Mycobacterium tuberculosis. The data set is described as follows: Antitubercular activity against Mycobacterium tuberculosis H37Rv ATCC 27294 using GAST/Fe medium after 1 week in presence of guanine by broth microdilution method. Type of data set: functional. As to conditions: H37Rv ATCC 27294, 168 h.
Data set [5] has as its system Mycobacterium tuberculosis. The data set is described as follows: Antitubercular activity against Mycobacterium tuberculosis H37Rv ATCC 27294 using 7H9/ADC/Tween medium after 1 week in presence of guanine by broth microdilution method. The data set is classed as functional. As to conditions: H37Rv ATCC 27294, 168 h.
Data set [6] concerns Mycobacterium tuberculosis. The experiment in a line: Antitubercular activity against Mycobacterium tuberculosis H37Rv ATCC 27294 using GAST/Fe medium after 1 week in absence of guanine by broth microdilution method. As to conditions: H37Rv ATCC 27294, 168 h. Type of data set: functional.
A further data set deals with T1, GMP reductase 2 (Homo sapiens, UniProt Q9P2T1).
T1 sequence (Q9P2T1 whole entry): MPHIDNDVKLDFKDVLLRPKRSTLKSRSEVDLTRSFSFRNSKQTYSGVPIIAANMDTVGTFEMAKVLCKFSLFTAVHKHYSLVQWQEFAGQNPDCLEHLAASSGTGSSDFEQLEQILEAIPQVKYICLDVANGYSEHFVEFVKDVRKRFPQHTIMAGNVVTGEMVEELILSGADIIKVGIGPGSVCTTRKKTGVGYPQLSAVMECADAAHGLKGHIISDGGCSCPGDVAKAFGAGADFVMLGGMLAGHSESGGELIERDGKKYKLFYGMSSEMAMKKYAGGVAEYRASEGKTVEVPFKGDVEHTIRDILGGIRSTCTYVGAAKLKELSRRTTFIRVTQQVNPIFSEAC
The data set is described as follows: Inhibition of human GMPR2 using GMP as substrate by spectrophotometric method. The note with it: read-out: Ki(app).

In data set [7] the test system is Mycobacterium tuberculosis. The experiment in a line: Antitubercular activity against Mycobacterium tuberculosis H37Rv ATCC 27294 using 7H9/ADC/Tween medium after 2 weeks in absence of guanine by broth microdilution method. The data set is classed as functional, organism-based.
Data set [8] relates to Mycobacterium tuberculosis. The experiment in a line: Antitubercular activity against Mycobacterium tuberculosis H37Rv ATCC 27294 using GAST/Fe medium after 2 weeks in absence of guanine by broth microdilution method. Type of data set: functional, organism-based.
Data set [9] in a line: as §1. Type of data set: cell-based. As to conditions: HepG2 cells, read-out: LD50.
Data set [10] deals with HepG2. The experiment in a line: Cytotoxicity against human HepG2 cells assessed as LDH release at 25 uM after 24 hrs relative to control. As to conditions: hepg2, 24 h. Type of data set: cell-based.
Data set [11] in a line: Half life in mouse liver microsomes in absence of NADPH. Type of data set: ADME, microsome. A general note: Liver microsomes are a subcellular fraction often used to study metabolism.
The subject of data set [12] is Mycobacterium tuberculosis. The experiment in a line: Antitubercular activity against Mycobacterium tuberculosis H37Rv ATCC 27294 using 7H9/ADC/Tween medium after 1 week in absence of guanine and presence of anhydrotetracycline by Alamar blue assay. Type of data set: functional. As to conditions: H37Rv ATCC 27294, 168 h.
Data set [13] can be described thus: Tmax in mouse at 20 mg/kg, po. As to conditions: in vivo. Type of data set: ADME, organism-based.
Data set [14] is described as follows: Half life in mouse liver microsomes in presence of NADPH. Type of data set: ADME, microsome.
The test system of a further data set is HEK-293T. The data set is described as follows: Cytotoxicity against human HEK293T cells assessed as LDH release at 25 uM after 24 hrs relative to control. Type of data set: cell-based.
Data set [15] is described as follows: Drug metabolism in mouse plasma after 2 hrs. The data set is classed as ADME, cell-free.
The next data set has as its system HeLa. The experiment in a line: Cytotoxicity against human HeLa cells assessed as LDH release at 25 uM after 24 hrs relative to control. The data set is classed as cell-based.
Data set [16] can be described thus: Elimination half life in mouse plasma at 20 mg/kg, po. The data set is classed as ADME, organism-based. The note with it: read-out: beta t1/2 (converted).
The next data set concerns MCF7. The data set is described as follows: Cytotoxicity against human MCF7 cells assessed as LDH release at 25 uM after 24 hrs relative to control. Type of data set: cell-based. The note with it: mcf7, 24 h.
Data set [17] can be described thus: Cmax in mouse at 20 mg/kg, po. Type of data set: ADME, organism-based. Further details: dose 20 mg/kg, route oral. The note with it: in vivo.
Data set [18] in a line: Protein binding in mouse serum at 20 mg/kg, po. The data set is classed as ADME, organism-based. As to conditions: read-out: PB.

As to `C#CCOC(=O)COc1ccc(-c2nc3cc(NC(=O)[C@H](C)Oc4cccc(Cl)c4Cl)ccc3o2)cc1`, the Ki (in data set [1]; at GMP reductase 2) was over 5 µM throughout. The Activity result in the data set with HepG2 [2] is “Non-Toxic”. Also, the MIC – broadly, the lowest concentration that inhibits growth of the organism – came out at 0.2 µM (≈ 0.108 µg/mL) in [3], 1.4 µM in data set [4], 0.4 µM in data set [5] and 0.4 µM (≈ 0.216 µg/mL) in [6]. The result in [7] and in [8] was Active.

Turning to `COc1ccc(-c2nc3cc(NC(=O)[C@H](C)Oc4ccccc4C#N)ccc3o2)cc1`, the Ki (in data set [1]; at GMP reductase 2) was over 5 µM in each case. For the same compound, the CC50 at 24 h in data set [9] was over 25 µM. In addition, the minimal inhibitory concentration (MIC) in data set [3] came out at 1.2 µM (≈ 0.496 µg/mL); in data set [4] it was 6.3 µM; in data set [5], 4.7 µM; in data set [6], 3.1 µM (≈ 1.28 µg/mL). For the same compound, the result in data set [7] and in data set [8] was Active. Moreover, the Activity in the data set with HepG2 [10] lay within 9 to 13%.

For the compound `C[C@H](Nc1cccc(Cl)c1Cl)C(=O)Nc1ccc2oc(-c3ccc(C#N)cc3)nc2c1`, the Ki is 3.3 µM in data set [1] and over 5 µM at GMP reductase 2. Moreover, the MIC in data set [3] came out at 3 µM (≈ 1.35 µg/mL); in [4] it was 13 µM; in data set [5], 6 µM; in data set [6] it was 4 µM (≈ 1.81 µg/mL). The result in data set [7] and in data set [8] was Active.

In the case of `C[C@H](Oc1cccc(Cl)c1Cl)C(=O)Nc1ccc2oc(-c3ccc(OCC(=O)O)cc3)nc2c1`, the Ki (in data set [1]; at GMP reductase 2) was over 5 µM each time. Besides, the MIC in data set [3] is 9 µM (≈ 4.51 µg/mL); in data set [4] it was 4 µM; in data set [5] it was 20 µM; in data set [6], 2 µM (≈ 1 µg/mL). This compound also returned a t1/2 in [11] of 23 min.

`CCOC(=O)COc1ccc(-c2nc3cc(NC(=O)[C@H](C)Oc4cccc(Cl)c4Cl)ccc3o2)cc1`: the Ki (in data set [1]; on GMP reductase 2) was over 5 µM in each case. In addition, in the data set on HepG2 [2], the Activity entry is recorded as “Non-Toxic”. Further, the MIC is 0.2 to 3.1 µM (≈ 0.106 to 1.64 µg/mL) in data set [3], 0.5 µM in data set [4], 0.23 µM in data set [5] and 0.4 µM (≈ 0.212 µg/mL) in [6]. The compound further showed a t1/2 in [11] of 1.3 min. The outcome in data set [7] and in data set [8] was Active.

In the case of `COc1ccc(OC(C)C(=O)Nc2ccc3oc(-c4ccncc4)nc3c2)cc1` (centres undefined), the Ki (in data set [1]; at GMP reductase 2) was over 5 µM throughout. Moreover, the MIC in [3] is 10 to 12.5 µM (≈ 3.89 to 4.87 µg/mL); in data set [4], 24 µM; in data set [5], 21 µM; in [6], 5.3 µM (≈ 2.06 µg/mL); in data set [12] it was 12.5 µM.

Regarding `C[C@H](Oc1cccc(Cl)c1Cl)C(=O)Nc1ccc2oc(-c3ccc(C(=O)NO)cc3)nc2c1`, the Ki (in data set [1]; at GMP reductase 2) was over 5 µM in each case. Further, the MIC in data set [3] is 30 µM (≈ 14.6 µg/mL); in [4], 6 µM; in data set [5] it was over 50 µM; in data set [6] it was 3 µM (≈ 1.46 µg/mL). Moreover, in data set [8], the outcome was Active.

As for `C[C@H](Nc1cccc(F)c1F)C(=O)Nc1ccc2oc(-c3ccc(C#N)cc3)nc2c1`, in data set [13], the time of peak concentration (Tmax) (in general, the time at which the peak concentration occurs) was 30 min. Moreover, the Ki (in data set [1]; on GMP reductase 2) was over 5 µM each time. Besides, in [9], the CC50 at 24 h was over 25 µM. Moreover, in [14], the t1/2 amounted to 26 min. Moreover, the Activity with HEK-293T is under 10%; in the data set on HeLa it was under 10%; in the data set on MCF7, under 10%; in the data set with HepG2 [10] it was 9 to 13%. In addition, the MIC in [3] is 1 to 3.1 µM (≈ 0.418 to 1.3 µg/mL); in data set [4], 6 µM; in data set [5], 1.4 µM; in [6] it was 2 µM (≈ 0.837 µg/mL); in data set [12], 3.1 µM. Besides, the Drug metabolism result in data set [15] is reported as “Metabolite_Notdetected”. Besides, the half-life in data set [16] is 300 min. Also, the Cmax (as a rule, the maximum level reached in the sampled fluid or tissue) in [17] stood at 3000 nM. Further, the fraction unbound in data set [18] was under 0.01. The outcome in data set [7] and in data set [8] was Active.

Consider `C[C@H](Oc1cccc(F)c1F)C(=O)Nc1ccc2oc(-c3ccncc3)nc2c1`, for which the Ki (in data set [1]; on GMP reductase 2) was over 5 µM each time. The minimal inhibitory concentration (MIC) in data set [3] amounted to 1.9 µM (≈ 0.751 µg/mL); in [4] it was 6.3 µM; in [5], 4 µM; in data set [6] it was 4 µM (≈ 1.58 µg/mL). Also, the result in [7] and in [8] was Active.

As for `C[C@H](Oc1cccc(F)c1F)C(=O)Nc1ccc2oc(-c3ccc(C#N)cc3)nc2c1`, the Ki was 2 µM in [1] and over 5 µM on GMP reductase 2. Further, the CC50 at 24 h in data set [9] was over 25 µM. The MIC in [3] was determined as 1.5 µM (≈ 0.629 µg/mL); in data set [4], 6.3 µM; in data set [5], 4 µM; in data set [6], 3 µM (≈ 1.26 µg/mL). Further, the Activity in the data set with HepG2 [10] was in the range of 9 to 13%.
